Values quoted from earlier work, collected in patent US20140294972A1, “Oral Suspension” (NOVA BIO-PHARMA TECHNOLOGIES LIMITED, priority 2011, published 2014).

Conditions: neutral pH

water solubility: about 6.85 mg/mL
SMILES: Sc1ncnc2nc[nH]c12 [6-MP, 3,7-dihydropurine-6-thione]
